Experimental data: patent US9856216B2, “Compounds as TNIK, IKKε and TBK1 inhibitors and pharmaceutical composition comprising same” (GREEN CROSS CORPORATION, priority 2015, dated 2018)
pIC50: −log10 of the molar value.

Experiments:
TBK1 = biological target: T1, TBK1 (Homo sapiens, UniProt Q9UHD2); experiment: ADP-Glo Kinase Assay, inhibition activity on TBK1; assay type: biochemical
T1 construct: purchased Promega V3991
T1 sequence (Q9UHD2 1-729): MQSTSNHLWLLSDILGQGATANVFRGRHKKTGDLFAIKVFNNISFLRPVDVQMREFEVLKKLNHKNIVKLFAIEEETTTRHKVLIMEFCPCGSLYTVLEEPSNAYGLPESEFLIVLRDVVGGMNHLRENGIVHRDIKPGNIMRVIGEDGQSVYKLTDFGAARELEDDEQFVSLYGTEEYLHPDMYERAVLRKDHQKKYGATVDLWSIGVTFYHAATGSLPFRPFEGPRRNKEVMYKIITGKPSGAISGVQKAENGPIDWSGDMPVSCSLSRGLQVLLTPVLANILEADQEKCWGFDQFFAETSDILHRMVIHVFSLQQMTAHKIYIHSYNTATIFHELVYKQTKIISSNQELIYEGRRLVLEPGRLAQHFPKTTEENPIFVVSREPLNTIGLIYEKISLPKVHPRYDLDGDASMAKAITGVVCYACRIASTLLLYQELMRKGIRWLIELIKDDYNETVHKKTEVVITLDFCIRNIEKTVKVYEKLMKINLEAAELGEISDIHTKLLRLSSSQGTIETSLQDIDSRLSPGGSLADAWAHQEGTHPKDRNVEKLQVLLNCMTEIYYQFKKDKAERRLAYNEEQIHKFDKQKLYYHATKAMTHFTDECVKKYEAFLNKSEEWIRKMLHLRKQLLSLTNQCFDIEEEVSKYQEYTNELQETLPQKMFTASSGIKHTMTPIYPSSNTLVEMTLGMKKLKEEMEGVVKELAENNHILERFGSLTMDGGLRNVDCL
Protocol: (§1) The inhibition activities on TNIK, IKKε and TBK1 were measured by a luminometer, TNIK/IKKε/TBK1 Kinase Enzyme System (Promega, Ca# V4158; Invitrogen, PR8031B, Promega, Ca# V3991) and ADP-Glo Kinase Assay using ADP-Glo™ Kinase Analysis Kit (Promega, Ca# V9101) and a kinase reaction buffer [40 mM Tris(pH 7.5), 20 mM MgCl2, 0.1 mg/mL BSA] in accordance with the manufacturer's protocol.

IKKε = biological target: T2, IKKε (Homo sapiens, UniProt Q14164); experiment: ADP-Glo Kinase Assay, inhibition activity on IKKε; assay type: biochemical
T2 construct: purchased Invitrogen PR8031B
T2 sequence (Q14164 1-716): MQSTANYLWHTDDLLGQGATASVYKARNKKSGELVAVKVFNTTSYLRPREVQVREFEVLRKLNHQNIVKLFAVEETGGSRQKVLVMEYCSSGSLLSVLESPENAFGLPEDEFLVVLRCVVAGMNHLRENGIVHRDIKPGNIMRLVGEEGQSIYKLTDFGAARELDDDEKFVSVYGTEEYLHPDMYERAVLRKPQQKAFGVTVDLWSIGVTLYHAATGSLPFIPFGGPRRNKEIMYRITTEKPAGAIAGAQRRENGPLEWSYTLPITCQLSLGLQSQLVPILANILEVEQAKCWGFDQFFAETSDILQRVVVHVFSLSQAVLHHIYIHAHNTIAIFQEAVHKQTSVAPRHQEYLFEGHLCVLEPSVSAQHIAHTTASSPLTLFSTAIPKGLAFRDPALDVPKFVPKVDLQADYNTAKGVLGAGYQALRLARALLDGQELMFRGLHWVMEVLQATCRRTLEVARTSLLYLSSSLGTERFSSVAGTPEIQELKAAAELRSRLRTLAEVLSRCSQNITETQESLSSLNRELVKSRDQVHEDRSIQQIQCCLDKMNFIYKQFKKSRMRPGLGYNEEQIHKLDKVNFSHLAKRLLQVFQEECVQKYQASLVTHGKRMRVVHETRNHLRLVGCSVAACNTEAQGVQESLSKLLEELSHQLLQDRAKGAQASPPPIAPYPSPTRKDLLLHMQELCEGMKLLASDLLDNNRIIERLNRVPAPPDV
Protocol: as §1

| Structure (SMILES) | pIC50 (TBK1) | pIC50 (IKKε) |
| --- | --- | --- |
| CN(C)c1ccc(-c2ccnc(Nc3cccc(F)c3)n2)c2c1C(=O)NC2 [Example 267, 7-(Dimethylamino)-4-(2-((3-fluorophenyl)amino)pyrimidin-4-yl)isoindolin-1-one] | 5.40 | 5.26 |
| CCCCNc1ccc(-c2ccnc(Nc3cccc(OC)c3)n2)c2c1C(=O)NC2 [Example 268, 7-(Butylamino)-4-(2-((3-methoxyphenyl)amino)pyrimidin-4-yl)isoindolin-1-one] | 6.49 | 6.06 |
| CCCCN(C)c1ccc(-c2ccnc(Nc3cccc(OC)c3)n2)c2c1C(=O)NC2 [Example 269, 7-(Butyl(methyl)amino)-4-(2-((3-methoxyphenyl)amino)pyrimidin-4-yl)isoindolin-1-one] | 5.59 | 5.22 |
| CCCCN(C)c1ccc(-c2ccnc(Nc3cccc(OC)c3)n2)c2c1C(=O)N(C)C2 [Example 270, 7-(Butyl(methyl)amino)-4-(2-((3-methoxyphenyl)amino)pyrimidin-4-yl)-2-methylisoindolin-1-one] | < 5.00 | < 5.00 |
